Read-outs that look alike come from different tables or passages of the source.
Molecular target: T1, human Keap1 kelch domain (amino acids Ala321-Thr609) (Homo sapiens, UniProt Q14145)
T1 construct: human Keap1 kelch domain (amino acids Ala321-Thr609)
Assay: Keap1-Nrf2 peptide binding assay (fluorescence polarisation)
Settings: binding to fluorescently labeled human Nrf2 peptide, 20 nM Keap1 kelch domain, 50 nM peptide
Experimental: Keap1-Nrf2 peptide binding assay
Two microliters of test compound in reaction buffer (phosphate-buffered saline, 2 mM DL-dithiothreitol, 0.015 % (v/v) Brij-35) containing 6 % (v/v) DMSO were mixed with two microliters of the Keap1 kelch domain in reaction buffer in a black 384-well small volume microtiter plate and incubated at ambient temperature for 15 minutes. Thereafter, two microliters were added of the fluorescently labeled Nrf2 peptide in reaction buffer, and the mixture was incubated for a further 30 minutes at ambient temperature. Final concentrations of the Keap1 kelch domain and the fluorescently labeled Nrf2 peptide were 20 nM and 50 nM, respectively.
Fluorescence polarization (FP) was measured at excitation and emission wavelengths of 635 nm and 660 nm, respectively. Positive controls for binding (two microliters of reaction buffer containing 6 % (v/v) DMSO instead of test compound in the same buffer) and negative controls (as positive controls, but without Keap1 kelch domain) were included on each microtiter plate.

T1 sequence (Q14145 321-609): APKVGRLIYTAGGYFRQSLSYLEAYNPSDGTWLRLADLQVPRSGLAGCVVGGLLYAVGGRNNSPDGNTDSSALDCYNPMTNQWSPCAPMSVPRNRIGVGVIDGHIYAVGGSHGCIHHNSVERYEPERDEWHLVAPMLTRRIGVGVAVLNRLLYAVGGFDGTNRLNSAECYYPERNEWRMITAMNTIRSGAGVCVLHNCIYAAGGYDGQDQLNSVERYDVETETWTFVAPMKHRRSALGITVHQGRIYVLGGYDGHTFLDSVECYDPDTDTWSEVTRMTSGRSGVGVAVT

Row | IC50 (read-out: IC50) [nM] | SMILES | IC50 [nM]
1 | 1600 | CCCCCCCCn1nc(C)c(S(=O)(=O)Nc2ccc(N3CC[C@@H](C(=O)O)C3)c3ncccc23)c1C [Example 73] | –
2 | 190 | CCCCCCCCn1nc(C)c(S(=O)(=O)Nc2ccc(N3CC[C@@H](C(=O)O)C3)c3ccccc23)c1C [Example 65, (3R)-1-[4-[(3,5-dimethyl-1-octyl-pyrazol-4-yl)sulfonylamino]-1-naphthyl]pyrrolidine-3-carboxylic acid] | –
3 | – | Cc1nn(C)c(C)c1S(=O)(=O)Nc1ccc(N2CC[C@@H](C(=O)O)C2)c2ccccc12 [Example 38, (3R)-1-[4-[(1,3,5-trimethylpyrazol-4-yl)sulfonylamino]-1-naphthyl]pyrrolidine-3-carboxylic acid] | 900
4 | – | O=C(O)[C@@H]1CCN(c2ccc(NS(=O)(=O)c3cc(Cl)ccc3Cl)c3ccccc23)C1 [Example 48, (3R)-1-[4-[(2,5-dichlorophenyl)sulfonylamino]-1-naphthyl]pyrrolidine-3-carboxylic acid] | 2500
5 | 2900 | O=C(O)[C@H]1CCN(c2ccc(NS(=O)(=O)c3cc(Cl)cc(Cl)c3)c3ccccc23)C1 [Example 17, (3S)-1-[4-[(3,5-dichlorophenyl)sulfonylamino]-1-naphthyl]pyrrolidine-3-carboxylic acid] | –
6 | – | O=C(O)[C@H]1CCN(c2ccc(NS(=O)(=O)c3ccc(Cl)c(C(F)(F)F)c3)c3ccccc23)C1 [Example 23, (3S)-1-[4-[[4-chloro-3-(trifluoromethyl)phenyl]sulfonylamino]-1-naphthyl]pyrrolidine-3-carboxylic acid] | 8500
7 | 300 | Cc1c(S(=O)(=O)Nc2ccc(N3CC[C@@H](C(=O)O)C3)c3ncccc23)sc2cccc(F)c12 [Example 70, (3R)-1-[5-[(4-fluoro-3-methyl-benzothiophen-2-yl)sulfonylamino]-8-quinolyl]pyrrolidine-3-carboxylic acid] | –
8 | 1700 | O=C(O)[C@@H]1CCN(c2ccc(NS(=O)(=O)c3cc(Cl)cc(Cl)c3)c3ccccc23)C1 [Example 33, (3R)-1-[4-[(3,5-dichlorophenyl)sulfonylamino]-1-naphthyl]pyrrolidine-3-carboxylic acid] | –
9 | 1000 | Cc1nn(C)c(Cl)c1S(=O)(=O)Nc1ccc(N2CCC(C)(C(=O)O)C2)c2ccccc12 (stereo not shown) [Example 10, 1-[4-[(5-chloro-1,3-dimethyl-pyrazol-4-yl)sulfonylamino]-1-naphthyl]-3-methyl-pyrrolidine-3-carboxylic acid] | –
10 | – | Cc1nn(-c2ccccc2)c(C)c1S(=O)(=O)Nc1ccc(N2CC[C@@H](C(=O)O)C2)c2ccccc12 [Example 42, (3R)-1-[4-[(3,5-dimethyl-1-phenyl-pyrazol-4-yl)sulfonylamino]-1-naphthyl]pyrrolidine-3-carboxylic acid] | 3000
11 | – | O=C(O)[C@@H]1CCN(c2ccc(NS(=O)(=O)c3cc(F)cc(F)c3Cl)c3ccccc23)C1 [Example 46, (3R)-1-[4-[(2-chloro-3,5-difluorophenyl)sulfonylamino]-1-naphthyl]pyrrolidine-3-carboxylic acid] | 7400
12 | – | O=C(O)[C@H]1CCN(c2ccc(NS(=O)(=O)c3cc(Cl)ccc3Cl)c3ccccc23)C1 [Example 28, (3S)-1-[4-[(2,5-dichlorophenyl)sulfonylamino]-1-naphthyl]pyrrolidine-3-carboxylic acid] | 5800
13 | – | Cc1nc(C)c(S(=O)(=O)Nc2ccc(N3CC[C@@H](C(=O)O)C3)c3ccccc23)s1 [Example 41, (3R)-1-[4-[(2,4-dimethylthiazol-5-yl)sulfonylamino]-1-naphthyl]pyrrolidine-3-carboxylic acid] | 1600
14 | 500 | Cc1cc(C)c(C)c(S(=O)(=O)Nc2ccc(N3CCC[C@H](C(=O)O)C3)c3ccccc23)c1C [Example 59, (3S)-1-[4-[(2,3,5,6-tetramethylphenyl)sulfonylamino]-1-naphthyl]piperidine-3-carboxylic acid] | –
15 | – | CCCn1ncc(S(=O)(=O)Nc2ccc(N3CC[C@@H](C(=O)O)C3)c3ccccc23)c1C [Example 54, (3R)-1-[4-[(5-methyl-1-propyl-pyrazol-4-yl)sulfonylamino]-1-naphthyl]pyrrolidine-3-carboxylic acid] | 1800
16 | – | Cc1c(S(=O)(=O)Nc2ccc(N3CC[C@@H](C(=O)O)C3)c3ccccc23)cnn1CC(C)C [Example 49, (3R)-1-[4-[(1-isobutyl-5-methyl-pyrazol-4-yl)sulfonylamino]-1-naphthyl]pyrrolidine-3-carboxylic acid] | 2900
17 | – | Cc1nn(C)c(C)c1S(=O)(=O)Nc1ccc(N2CC[C@H](C(=O)O)C2)c2ccccc12 [Example 22, (3S)-1-[4-[(1,3,5-trimethylpyrazol-4-yl)sulfonylamino]-1-naphthyl]pyrrolidine-3-carboxylic acid] | 4500

Row | IC50 (read-out: IC50) [nM] | SMILES | IC50 [nM]
18 | 1300 | O=C(O)[C@@H]1CCN(c2ccc(NS(=O)(=O)c3ccc(Cl)cc3Cl)c3ccccc23)C1 [Example 12, (3R)-1-[4-[(2,4-dichlorophenyl)sulfonylamino]-1-naphthyl]pyrrolidine-3-carboxylic acid] | –
19 | – | Cc1nn(C)c(Cl)c1S(=O)(=O)Nc1ccc(N2CC[C@@H](C(=O)O)C2)c2ncccc12 [Example 52, (3R)-1-[5-[(5-chloro-1,3-dimethyl-pyrazol-4-yl)sulfonylamino]-8-quinolyl]pyrrolidine-3-carboxylic acid] | 2700
20 | – | Cc1ccc(Cl)cc1S(=O)(=O)Nc1ccc(N2CC[C@@H](C(=O)O)C2)c2ccccc12 [Example 43, (3R)-1-[4-[(5-chloro-2-methylphenyl)sulfonylamino]-1-naphthyl]pyrrolidine-3-carboxylic acid] | 1200
21 | 2900 | O=C(O)[C@@H]1CCN(c2ccc(NS(=O)(=O)c3cc(Cl)sc3Cl)c3ccccc23)C1 [Example 34, (3R)-1-[4-[(2,5-dichloro-3-thienyl)sulfonylamino]-1-naphthyl]pyrrolidine-3-carboxylic acid] | –
22 | 1200 | Cc1nn(C)c(Cl)c1S(=O)(=O)Nc1ccc(N2CCC(C(=O)O)C2)c2ccccc12 (stereo not shown) [Example 4, 1-[4-[(5-chloro-1,3-dimethyl-pyrazol-4-yl)sulfonylamino]-1-naphthyl]pyrrolidine-3-carboxylic acid] | –
23 | 1800 | O=C(O)[C@@H]1CCN(c2ccc(NS(=O)(=O)c3cccc(Cl)c3Cl)c3ccccc23)C1 [Example 35, (3R)-1-[4-[(2,3-dichlorophenyl)sulfonylamino]-1-naphthyl]pyrrolidine-3-carboxylic acid] | –
24 | – | Cc1nc(C)c(S(=O)(=O)Nc2ccc(N3CC[C@H](C(=O)O)C3)c3ccccc23)s1 [Example 24, (3S)-1-[4-[(2,4-dimethylthiazol-5-yl)sulfonylamino]-1-naphthyl]pyrrolidine-3-carboxylic acid] | 4300
25 | 2900 | Cc1c(Cl)cccc1S(=O)(=O)Nc1ccc(N2CC[C@H](C(=O)O)C2)c2ccccc12 [Example 16, (3S)-1-[4-[(3-chloro-2-methylphenyl)sulfonylamino]-1-naphthyl]pyrrolidine-3-carboxylic acid] | –
26 | 800 | Cc1cc(C)c(C)c(S(=O)(=O)Nc2ccc(N3CCC(C)(C(=O)O)C3)c3ccccc23)c1C (stereo not shown) [Example 9, 3-methyl-1-[4-[(2,3,5,6-tetramethylphenyl)sulfonylamino]-1-naphthyl]pyrrolidine-3-carboxylic acid] | –
27 | 7100 | COc1ccc(F)c(S(=O)(=O)Nc2ccc(N3CC[C@H](C(=O)O)C3)c3ccccc23)c1 [Example 27, (3S)-1-[4-[(2-fluoro-5-methoxyphenyl)sulfonylamino]-1-naphthyl]pyrrolidine-3-carboxylic acid] | –
28 | 2500 | COc1ccc(F)c(S(=O)(=O)Nc2ccc(N3CC[C@@H](C(=O)O)C3)c3ccccc23)c1 [Example 44, (3R)-1-[4-[(2-fluoro-5-methoxyphenyl)sulfonylamino]-1-naphthyl]pyrrolidine-3-carboxylic acid] | –
29 | 5000 | CCCCn1cc(S(=O)(=O)Nc2ccc(N3CC[C@H](C(=O)O)C3)c3ccccc23)c(C)n1 [Example 11, (3S)-1-[4-[(1-butyl-3-methyl-pyrazol-4-yl)sulfonylamino]-1-naphthyl]pyrrolidine-3-carboxylic acid] | –
30 | – | COc1ccc(S(=O)(=O)Nc2ccc(N3CC[C@@H](C(=O)O)C3)c3ccccc23)c(OC)c1 [Example 47, (3R)-1-[4-[(2,4-dimethoxyphenyl)sulfonylamino]-1-naphthyl]pyrrolidine-3-carboxylic acid] | 6100
31 | – | Cc1c(S(=O)(=O)Nc2ccc(N3CC[C@@H](C(=O)O)C3)c3ncccc23)c2ccccc2n1C [Example 71, (3R)-1-[5-[(1,2-dimethylindol-3-yl)sulfonylamino]-8-quinolyl]pyrrolidine-3-carboxylic acid] | 1100
32 | 600 | O=C(O)[C@@H]1CCN(c2ccc(NS(=O)(=O)c3ccc4c(c3)CCCC4)c3ccccc23)C1 [Example 77, (3R)-1-[4-(tetralin-6-ylsulfonylamino)-1-naphthyl]pyrrolidine-3-carboxylic acid] | –
33 | – | Cc1nn(-c2ccccc2)c(C)c1S(=O)(=O)Nc1ccc(N2CC[C@H](C(=O)O)C2)c2ccccc12 [Example 25, (3S)-1-[4-[(3,5-dimethyl-1-phenyl-pyrazol-4-yl)sulfonylamino]-1-naphthyl]pyrrolidine-3-carboxylic acid] | 4100
34 | – | O=C(O)[C@@H]1CCN(c2ccc(NS(=O)(=O)c3cccc4c3OCCO4)c3ccccc23)C1 [Example 74, (3R)-1-[4-(2,3-dihydro-1,4-benzodioxin-5-ylsulfonylamino)-1-naphthyl]pyrrolidine-3-carboxylic acid] | 9100
